Data: patent publication US4929612A, “Thiadiazolylacetamide cephem derivatives” (Eisai Co., Ltd., priority 1987, dated 1990)
≈ marks a conversion by molar mass, not a printed value. Like-named read-outs stand apart in the source and are kept apart here.

What was measured:
Ser. marcescens ES-75 = assay: anti-bacterial activity, MIC, Ser. marcescens ES-75; assay type: cell-based; conditions: Serratia marcescens, ES75
From the text: (§1) Test bacterium MIC (μg/ml) Inoculum size 10^6 CFU/ml

Staph. aureus 209-P = assay: anti-bacterial activity, MIC, Staph. aureus 209-P; assay type: cell-based; conditions: Staphylococcus aureus, inoculum size 10^6 CFU/ml
From the text: as §1

Pseud. aeruginosa EP-01 = assay: anti-bacterial activity, MIC, Pseud. aeruginosa EP-01; assay type: cell-based; conditions: Pseudomonas aeruginosa, EP01, inoculum size 10^6 CFU/ml
From the text: as §1

Kleb. pneumoniae EK-6 = assay: anti-bacterial activity, MIC, Kleb. pneumoniae EK-6; assay type: cell-based; conditions: Klebsiella pneumoniae, EK6
From the text: as §1

[1] = system: Morganella morganii EP-14; assay: anti-bacterial activity, MIC, Morganella morganii EP-14; assay type: cell-based; conditions: EP14, inoculum size 10^6 CFU/ml
From the text: as §1

Escher. coli NIHJ = assay: anti-bacterial activity, MIC, Escher. coli NIHJ; assay type: cell-based; conditions: Escherichia coli, inoculum size 10^6 CFU/ml
From the text: as §1

[2] = Acute toxicity, LD50 (mouse, intravenous injection); conditions: in vivo
From the text: Acute toxicity [LD50 (mouse, intravenous injection)] of the following compounds was more than 3 g/kg, respectively.

[3] = Ser. marcescens ES-75, inoculum size 10^6 CFU/ml, read-out: MIC
[4] = Kleb. pneumoniae EK-6, inoculum size 10^6 CFU/ml, read-out: MIC

SMILES	MIC (Ser. marcescens ES-75; [3])	MIC (Staph. aureus 209-P)	MIC (Pseud. aeruginosa EP-01)	MIC (Kleb. pneumoniae EK-6; [4])	MIC [1]	MIC (Escher. coli NIHJ)	LD50 [2]	MIC (Kleb. pneumoniae EK-6)	MIC (Ser. marcescens ES-75)
Nc1nc(/C(=N/OCF)C(=O)N[C@@H]2C(=O)N3C(C(=O)[O-])=C(C[N+]45CCC(CO)(CC4)CC5)CS[C@H]23)ns1 [Example 11, 7β-[2-(5-Amino-1,2,4-thiadiazol-3-yl)-(Z)-2-fluoromethoxyiminoacetamido]-3-(4-hydroxylmethyl-1-quinuclidinio)methyl-3-cephem-4-carboxylate]	0.1 µg/mL (≈ 0.18 µM)	0.8 µg/mL (≈ 1.44 µM)	0.4 µg/mL (≈ 0.72 µM)	≤ 0.025 µg/mL	≤ 0.025 µg/mL	≤ 0.025 µg/mL	> 3000 mg/kg		
Nc1nc(/C(=N/OCF)C(=O)N[C@@H]2C(=O)N3C(C(=O)[O-])=C(C[N+]45CCC(O)(CC4)C5)CS[C@H]23)ns1 [Example 3, 7β-[2-(5-Amino-1,2,4-thiadiazol-3-yl)-(Z)-2-fluoromethoxyiminoacetamido]-3-(4-hydroxy-1,4-methylene-1-piperidinio)methyl-3-cephem-4-carboxylate]	0.1 µg/mL (≈ 0.19 µM)	0.4 µg/mL (≈ 0.758 µM)	0.8 µg/mL (≈ 1.52 µM)		0.05 µg/mL (≈ 0.0948 µM)	0.05 µg/mL (≈ 0.0948 µM)	> 3000 mg/kg	0.1 µg/mL (≈ 0.19 µM)	
CC12CC[N+](CC3=C(C(=O)[O-])N4C(=O)[C@@H](NC(=O)/C(=N\OCF)c5nsc(N)n5)[C@H]4SC3)(CC1)CC2 [Example 2, 7β-[2-(5-Amino-1,2,4-thiadiazol-3-yl)-(Z)-2-fluoromethoxyiminoacetamido]-3-(4-methyl-1-quinuclidinio)methyl-3-cephem-4-carboxylate]		0.8 µg/mL (≈ 1.48 µM)	0.8 µg/mL (≈ 1.48 µM)	0.05 µg/mL (≈ 0.0927 µM)	0.1 µg/mL (≈ 0.185 µM)	0.05 µg/mL (≈ 0.0927 µM)			0.1 µg/mL (≈ 0.185 µM)
C[N+](C)(CCC(N)=O)CC1=C(C(=O)[O-])N2C(=O)[C@@H](NC(=O)/C(=N\OCF)c3nsc(N)n3)[C@H]2SC1 [Example 5, 7β-[2-(5-Amino-1,2,4-thiadiazol-3-yl)-(Z)-2-fluoromethoxyiminoacetamido]-3-[N,N-dimethyl-N-(2-carbamoyl)ethylammonio]methyl-3-cephem-4-carboxylate]		1.56 µg/mL (≈ 2.94 µM)	1.56 µg/mL (≈ 2.94 µM)	≤ 0.025 µg/mL	0.05 µg/mL (≈ 0.0942 µM)	≤ 0.025 µg/mL			0.1 µg/mL (≈ 0.188 µM)
NC(=O)C12CC[N+](CC3=C(C(=O)[O-])N4C(=O)[C@@H](NC(=O)/C(=N\OCF)c5nsc(N)n5)[C@H]4SC3)(CC1)CC2 [Example 1, 7β-[2-(5-Amino-1,2,4-thiadiazol-3-yl)-(Z)-2-fluoromethoxyiminoacetamido]-3-(4-carbamoyl-1-quinuclidinio)methyl-3-cephem-4-carboxylate]	0.1 µg/mL (≈ 0.176 µM)	1.56 µg/mL (≈ 2.74 µM)	0.4 µg/mL (≈ 0.703 µM)	0.05 µg/mL (≈ 0.0879 µM)	0.05 µg/mL (≈ 0.0879 µM)	0.05 µg/mL (≈ 0.0879 µM)	> 3000 mg/kg		

Now from value to molecule, other results behind:

MIC (Ser. marcescens ES-75; [3])	MIC (Staph. aureus 209-P)	MIC (Pseud. aeruginosa EP-01)	MIC (Kleb. pneumoniae EK-6; [4])	MIC [1]	MIC (Escher. coli NIHJ)	SMILES	LD50 [2]	MIC (Kleb. pneumoniae EK-6)	MIC (Ser. marcescens ES-75)
0.05 µg/mL (≈ 0.095 µM)	0.4 µg/mL (≈ 0.76 µM)	0.8 µg/mL (≈ 1.52 µM)	0.05 µg/mL (≈ 0.095 µM)	0.05 µg/mL (≈ 0.095 µM)	0.05 µg/mL (≈ 0.095 µM)	Nc1nc(/C(=N/OCF)C(=O)N[C@@H]2C(=O)N3C(C(=O)[O-])=C(C[n+]4cccn4CCO)CS[C@H]23)ns1 [Example 9, 7β-[2-(5-Amino-1,2,4-thiadiazol-3-yl)-(Z)-2-fluoromethoxyiminoacetamido]-3-[2-(2-hydroxyethyl)-1-pyrazolio]methyl-3-cephem-4-carboxylate]			
0.05 µg/mL (≈ 0.0928 µM)	0.4 µg/mL (≈ 0.743 µM)	0.8 µg/mL (≈ 1.49 µM)	0.05 µg/mL (≈ 0.0928 µM)	0.05 µg/mL (≈ 0.0928 µM)	≤ 0.025 µg/mL	Nc1nc(/C(=N/OCF)C(=O)N[C@@H]2C(=O)N3C(C(=O)[O-])=C(C[n+]4ccc5n4CCOC5)CS[C@H]23)ns1 [Example 8, 7β-[2-(5-Amino-1,2,4-thiadiazol-3-yl)-(Z)-2-fluoromethoxyiminoacetamido]-3-[1-morpholino-[4,3-b]pyrazolio]methyl-3-cephem-4-carboxylate]			
0.05 µg/mL (≈ 0.1 µM)	0.8 µg/mL (≈ 1.6 µM)	0.8 µg/mL (≈ 1.6 µM)	0.05 µg/mL (≈ 0.1 µM)	≤ 0.025 µg/mL	≤ 0.025 µg/mL	C[N+]1(CC2=C(C(=O)[O-])N3C(=O)[C@@H](NC(=O)/C(=N\OCF)c4nsc(N)n4)[C@H]3SC2)CCCC1 [Example 4, 7β-[2-(5-Amino-1,2,4-thiadiazol-3-yl)-(Z)-2-fluoromethoxyiminoacetamido]-3-(1-methyl-1-pyrrolidinio)methyl-3-cephem-4-carboxylate]			
0.1 µg/mL (≈ 0.18 µM)	1.56 µg/mL (≈ 2.81 µM)	0.8 µg/mL (≈ 1.44 µM)	0.05 µg/mL (≈ 0.0902 µM)	0.05 µg/mL (≈ 0.0902 µM)	0.05 µg/mL (≈ 0.0902 µM)	C[N+]1(CC2=C(C(=O)[O-])N3C(=O)[C@@H](NC(=O)/C(=N\OCF)c4nsc(N)n4)[C@H]3SC2)CC=C(C(N)=O)CC1 (stereo partly drawn) [Example 6, 7β-[2-(5-Amino-1,2,4-thiadiazol-3-yl)-(Z)-2-fluoromethoxyiminoacetamido]-3-(4-carbamoyl-1-methyl-1,2,3,6-tetrahydropyridinio)methyl-3-cephem-4-carboxylate]			
0.4 µg/mL (≈ 0.71 µM)	6.25 µg/mL (≈ 11.1 µM)	3.13 µg/mL (≈ 5.55 µM)	0.1 µg/mL (≈ 0.177 µM)	0.1 µg/mL (≈ 0.177 µM)	0.1 µg/mL (≈ 0.177 µM)	Nc1nc(/C(=N/OCF)C(=O)N[C@@H]2C(=O)N3C(C(=O)[O-])=C(C[N+](CCO)(CCO)CCO)CS[C@H]23)ns1 [Example 7, 7β-[2-(5-Amino-1,2,4-thiadiazol-3-yl)-(Z)-2-fluoromethoxyiminoacetamido]-3-[tris(2-hydroxyethyl)ammonio]methyl-3-cephem-4-carboxylate]			
0.05 µg/mL (≈ 0.0932 µM)	0.4 µg/mL (≈ 0.745 µM)	0.8 µg/mL (≈ 1.49 µM)	≤ 0.025 µg/mL	0.05 µg/mL (≈ 0.0932 µM)	≤ 0.025 µg/mL	Nc1nc(/C(=N/OCF)C(=O)N[C@@H]2C(=O)N3C(C(=O)[O-])=C(C[n+]4ccc5n4CCCC5)CS[C@H]23)ns1 [Example 10, 7β-[2-(5-Amino-1,2,4-thiadiazol-3-yl)-(Z)-2-fluoromethoxyiminoacetamido]-3-[1-(2,3-tetramethylene)pyrazolio]methyl-3-cephem-4-carboxylate]			
